Test [1] has as its system hepatitis B virus (HBV) ayw strain. Description: HBV experimental assay system, HepG2-2.2.15, secreted HBV DNA by TaqMan PCR. In kind it is cell-based. Conditions: 10 micrograms per ml, HepG2-2.2.15 cells, six days. For orientation: Quantitative PCR measures a nucleic acid by following its amplification.
The subject of a further test is spleen cells. The test is described as follows: Th1/Th2 cytokine profiling assay (Ovalbumin-restimulated spleen cells, CBA kit). In kind it is cell-based, Balb/c mice. Conditions: 10 micrograms per ml; Ovalbumin restimulation; 72 hours.
The test system of test [2] is Primary Human endothelial cells (HUVEC). Description: Endothelial cell migration assay. In kind it is cell-based. As to conditions: 10 micrograms per ml, 22 hours, combination peptide 1:peptide 2 0.95 mole:1.05 mole. On the procedure: Thereafter, designated concentration of testing peptides—10 micrograms per ml—was added in duplicate wells.
In another test the test system is HCMV strain AD169. Description: HCMV plaque formation assay in MRC-5 cells. The class given is cell-based. As to conditions: 10 micrograms per ml, 7-10 days. The text has this: Ganciclovir was used as positive control.
In a further test the test system is HUVEC. Description: Endothelial tube formation assay. In kind it is cell-based, human. Conditions: 10 micrograms per ml, 20 hours, combination peptide 1:peptide 2 1.10 mole:0.90 mole.

Where no end group is shown, it is not given here.

Text for spleen cells: The Balb/c mice (originated in 1923, it is a popular strain and is used in many different research disciplines. Also classified as an inbred from the production of 20 or more successive brother-sister matings, the Balb/c mouse is albino and small in size) were immunized on Days 1, 15, and 29 with Ovalbumin (Ovalbumin is the main protein found in egg white, commonly used to stimulate an immunological reaction in test animals) in PBS (5 micrograms/injection). On day 50, spleens of the mice were harvested (3 weeks after last boost with Ovalbumin). Cells were cultured (2×10^5/well in triplicate) and incubated with culture medium or test peptides—10 micrograms per ml—for 30 min. Thereafter, additional Ovalbumin was added to the cells at 10 micrograms/ml for in vitro restimulation of the cells. 72 hours later, cell supernatants were harvested and assayed using the Becton Dickinson Mouse Th1/Th2 Cytokine CBA Kit.

Turning to “Glu-Ile-Gly-Asp-Glu-Glu-Asn-Ser-Ala-Lys-Phe-Pro-Ile-NH2 (EIGDEENSAKFPI-NH2) [Peptide 1]”, the “inhibition of HBV replication as compared to the virus control infection” value in test [1] is listed as “no effect”. Besides, in the test with spleen cells, the “IFNγ spleen cells; TH1 response (% of control)” value is listed as 149.4 % of control, the “IL-2 spleen cells (% of control)” value is 212.4 % of control, the “IL-4 spleen cells; TH2 response (% of control)” value is on record as 163.3 % of control and the “IL-5 spleen cells; TH2 response (% of control)” value is recorded as 115.8 % of control. Further, the “TNF-a spleen cells; TH1 response (% of control)” value with spleen cells is given as 155.5 % of control. The “inhibition of the migration of human endothelial cells” value in test [2] was determined as 53%. In the test on HCMV strain AD169, the “inhibition of HCMV plaque formation as compared to the virus control experiment” value was 5.8%.

In the case of “Phe-Arg-Trp-Gly-Lys-Pro-Val-Gly-Lys-Lys-Arg-Arg-Pro-Val-Lys-Val-Tyr-Pro-Asn-Gly-Ala-Glu-Asp-Glu-Ser-Ala-Glu-Ala-Phe-Pro-Leu-Glu-OH (FRWGKPVGKKRRPVKVYPNGAEDESAEAFPLE-OH) [Peptide 2]”, in test [1], the “inhibition of HBV replication as compared to the virus control infection” value is on record as 8.4%. For the same substance, in the test on spleen cells, the “IFNγ spleen cells; TH1 response (% of control)” value is reported as 113.7 % of control, the “IL-2 spleen cells (% of control)” value is given as 137.1 % of control, the “IL-4 spleen cells; TH2 response (% of control)” value is reported as 0.0 % of control and the “IL-5 spleen cells; TH2 response (% of control)” value is listed as 106.3 % of control. Moreover, the “TNF-a spleen cells; TH1 response (% of control)” value in the test on spleen cells is given as 138.0 % of control. The “inhibition of the migration of human endothelial cells” value in test [2] is on record as 41%. Moreover, the “inhibition of the tube formation of human endothelial cells” value with HUVEC is listed as “did not inhibit”. In addition, in the test on HCMV strain AD169, the “inhibition of HCMV plaque formation as compared to the virus control experiment” value was “does not inhibit”.

Values taken from patent US20100210535A1, “[…] USE OF NE[…] AND ACTH 7-38 AND COMPOSITIONS THEREOF” (priority 2007, published 2010).
